Assay results from ChEMBL document CHEMBL3045449, “2-Bromo-1-ethoxy-(2,4-dichloro)styrene and 2,2-dibromo-1-ethoxy-(2,4-dichloro)styrenethe two impurities of bromfenvinphos; their identification, synthesis and full characterization” (J Pestic Sci, 2010).
Calls of active or inactive are those of the source.

Tests used:
Format in all cases: functional, organism-based
[1] = system: Tetranychus urticae; experiment: Insecticidal activity against Tetranychus urticae (two-spotted spider mite)
[2] = system: Sitophilus granarius; experiment: Insecticidal activity against Sitophilus granarius (granary weevil)
[3] = system: Blatta orientalis; experiment: Insecticidal activity against Blatta orientalis
[4] = system: Musca domestica; experiment: Insecticidal activity against Musca domestica (house fly)

Measured: Activity

CCOC(=CBr)c1ccc(Cl)cc1Cl (mixture of isomers)
inactive: all assays above

CCOC(=C(Br)Br)c1ccc(Cl)cc1Cl
inactive: all assays above
